Results as given in US9957249B2, “Saturated nitrogen and N-acylated heterocycles potentiating the activity of an active antibiotic against Mycobacteria” (Universite de Droit et de la Sante de Lille 2, priority 2012, dated 2018).

Tests used:
[1] = test system: M. tuberculosis; assay: Potentiation of ethionamide cell test (High Content Screening); format: cell-based; settings: ligand concentration necessary to potentiate ten times the activity of ethionamide, constant ethionamide 0.1 μg/mL (1/10 of its CMI99), 50% inhibition of bacterial growth
Procedure: Potentiation of Ethionamide Cell Test
The test used made it possible to ascertain that these compounds were capable of potentiating the bactericide activity of ethionamide on M. tuberculosis alone. This test was a “High Content Screening” (HCS) or dense content screening test. HCS tests were performed on cell cultures that enable certain phenotypic features of a microorganism (e.g. a bacterium) in a given environment to be studied. The phenotypic changes observed can range from the increase (or decrease) of the production of certain marked proteins to the modification of the morphology of the microorganism under consideration. The method is described in the following publication: “Ethionamide Boosters: Synthesis, Biological Activity, and Structure-Activity Relationships of a Series of 1,2,4-Oxadiazole EthR Inhibitors”, M. Flipo et al., Journal of Medicinal Chemistry, 2011, 54(8), 2994-3010.
This test aims to determine the ligand concentration necessary to potentiate ten times the activity of ethionamide (ETH).
To measure the ligand concentration necessary for potentiating ten times the activity of ETH, a constant concentration of ethionamide (0.1 μg/mL corresponding to 1/10 of its CMI99) was chosen. By varying the ligand concentration, the concentration necessary to inhibit 50% of the bacterial growth, i.e. the concentration necessary to potentiate ten times the activity of ethionamide, was determined. This concentration was denoted EC50.

[2] = Measurement of the solubility; format: physicochemical; settings: aqueous buffer, kinetic from dmso stock; PBS at pH 7.4, 24 h at RT, LC-MS, ratio of mass signals PBS/MeOH
Procedure: Measurement of the Solubility
40 μL of a solution at 10 mM in DMSO of the sample was added to 1.96 mL MeOH or PBS at pH 7.4. The samples were then agitated during 24 h at RT, centrifuged during 5 min and then filtrated on filters of 0.45 μm size. 20 μL of each solution were then added to 180 μL MeOH and then analyzed by LC-MS. The solubility was determined as ratio of the surfaces of the mass signals PBS/MeOH.

Row | Structure (SMILES) | EC50 ([1]; Table III) | other results
1 | COc1cccc(C2CCN(C(=O)CCC(F)(F)F)CC2)c1 [BDM_70538] | 140 nM | –
2 | O=C(CCC(F)(F)F)N1CCN(c2ccc(F)cc2)CC1 [BDM_44819] | 27 nM | –
3 | O=C(CCC(F)(F)F)N1CCC(c2ccc(O)cc2)CC1 [BDM_45572] | 280 nM | –
4 | O=C(CCC(F)(F)F)N1CCC(c2ccc(Cl)cc2)CC1 [BDM_70535] | 120 nM | –
5 | O=C(CCC(F)(F)F)N1CCC(c2ccc(Cl)c(Cl)c2)CC1 [BDM_70716] | 25 nM | –
6 | O=C(CCC(F)(F)F)N1CCC(c2cccc(F)c2)CC1 [BDM_70531] | 0.8 nM | –
7 | O=C(CCC(F)(F)F)N1CCC(c2ccncc2)CC1 [BDM_70542] | 330 nM | –
8 | O=C(CCC(F)(F)F)N1CCN(Cc2ccccc2)CC1 [BDM_70719] | 1100 nM | –
9 | Cc1ccc(C2CCN(C(=O)CCC(F)(F)F)CC2)cc1 [BDM_70663] | 26 nM | –
10 | CC(C)CCC(=O)N1CCC(c2ccccc2)CC1 [BDM_44649] | 60 nM | EC50 ([1]; Table II): 60 nM
11 | O=C(CCCC(F)(F)F)N1CCN(c2ccc(F)cc2)CC1 [BDM_44820] | 140 nM | –
12 | Cc1ccccc1C1CCN(C(=O)CCC(F)(F)F)CC1 [BDM_70665] | 35 nM | –
13 | O=C(CCC(F)(F)F)N1CCC(c2cccc(C(F)(F)F)c2)CC1 [BDM_70546] | 1 nM | –
14 | O=C(CCC(F)(F)F)N1CCC(c2ccc(F)cc2)C1 (stereo not shown) [BDM_70717] | 9 nM | EC50 ([1]; Table I): 9 nM
15 | Cc1cccc(C2CCN(C(=O)CCC(F)(F)F)CC2)c1 [BDM_70664] | 1 nM | –
16 | O=C(CCC(F)(F)F)N1CCC(c2ccccc2)CC1 [BDM_44647] | 0.8 nM | EC50 ([1]; Table I): 0.8 nM; solubility at 24 h [2]: 50.4 µg/mL
17 | O=C(CCC(F)(F)F)N1CCC(c2ccccc2C(F)(F)F)CC1 [BDM_70536] | 770 nM | –
18 | COc1ccccc1C1CCN(C(=O)CCC(F)(F)F)CC1 [BDM_70540] | 140 nM | –

Row | Structure (SMILES) | EC50 ([1]; Table III) | other results
19 | O=C(CCCC(F)(F)F)N1CCN(c2ccccc2)CC1 [BDM_44809] | 70 nM | –
20 | O=C(CCCC(F)(F)F)N1CCC(c2ccccc2)CC1 [BDM_44648] | < 10 nM | EC50 ([1]; Table I): < 10 nM; solubility at 24 h [2]: 42.9 µg/mL
21 | O=C(CCC(F)(F)F)N1CCC(c2ccc(C(F)(F)F)cc2)CC1 [BDM_70667] | 300 nM | –
22 | O=C(CCC(F)(F)F)N1CCC(c2ccc(F)cc2)CC1 [BDM_44751] | 1 nM | EC50 ([1]; Table I): 1 nM; solubility at 24 h [2]: 51.9 µg/mL
23 | CC(C)CCC(=O)N1CCN(c2ccccc2)CC1 [BDM_44810] | 60 nM | EC50 ([1]; Table II): 60 nM
24 | O=C(CCC(F)(F)F)N1CCC(c2ccccc2Cl)CC1 [BDM_70534] | 110 nM | –
25 | O=C(CCC(F)(F)F)N1CCC(c2ccccc2F)CC1 [BDM_70666] | 1 nM | –
26 | O=C(CCC(F)(F)F)N1CCN(c2ccc(Cl)cc2)CC1 [BDM_44811] | 10 nM | –
27 | O=C(CCC(F)(F)F)N1CCN(c2ccc(F)cc2F)CC1 [BDM_70669] | 21 nM | –
28 | O=C(CCCC(F)(F)F)N1CCN(c2ccc(Cl)cc2)CC1 [BDM_44812] | < 20 nM | –
29 | O=C(CCC(F)(F)F)N1CCC(c2c(F)cc(F)cc2F)CC1 [BDM_71148] | 1 nM | –
30 | O=C(CCC(F)(F)F)N1CCN(c2ccccc2)CC1 [BDM_44808] | 10 nM | –
31 | CC(C)CCC(=O)N1CCN(c2ccc(Cl)cc2)CC1 [BDM_44813] | 100 nM | EC50 ([1]; Table II): 100 nM
32 | O=C(CCC(F)(F)F)N1CCC(Cc2ccccc2)CC1 [BDM_70670] | 54 nM | –
33 | O=C(CCC(F)(F)F)N1CCC(c2cccc(Cl)c2)CC1 [BDM_70668] | 0.5 nM | –
34 | COc1ccc(C2CCN(C(=O)CCC(F)(F)F)CC2)cc1 [BDM_70537] | 2 nM | –
35 | CC(C)CCC(=O)N1CCN(c2ccc(F)cc2)CC1 [BDM_44821] | 100 nM | EC50 ([1]; Table II): 100 nM
